In test [1] the test system is Plasmodium spp. complex II. Description: Plasmodium spp. complex II inhibition (literature values). The conditions noted are these: ratio between mammalian and Plasmodium complex II IC50s. The class given is biochemical. An excerpt:
Table 1 Selectivity of classical complex II inhibitor against Plasmodium spp. and mammal complex II. | column: Selectivity ^a

Test [2] relates to Plasmodium spp. complex II. The settings on record: cited from earlier work; for Effect on Plasmodium mitochondrial complex II: classical ubiquinone-site inhibitors, ref [30], [14].
For the next test, the system named is Mammal complex II. The settings on record: read-out: Complex II IC50, Mammal, cited from earlier work.
In a further test the test system is P. falciparum 3D7. Kind of test: Drug sensitivity assay, 72 h, PfLDH-based. The class given is cell-based. The settings on record: Plasmodium falciparum, 3D7; Figure 6b; read-out: Growth inhibition EC50, 3D7. The protocol:
The P. falciparum 3D7 strain was cultured, as described previously, in 3% hematocrit type A human red blood cells (RBCs) in RPMI1640 medium (Invitrogen; San Diego, CA, USA) supplemented with 25 mM sodium hydrogen biocarbonate, 10 μg/mL hypoxanthine, 40 μg/mL gentamicin sulfate, and 0.5% (w/v) Albumax II (Invitrogen) (“complete medium”). Cultures were maintained in a MG-70M multi-gas incubator (Taitec) under the conditions of 5% O2, 5% CO2, and 90% N2 at 37 °C. The medium was replaced daily. Parasitemia was measured by thin blood smears stained with Giemsa. In our previous study, we generated mutant P. falciparum strains expressing either disrupted or full-length versions of the flavoprotein (Fp) subunit (encoded by the Pfsdha gene). Both strains were cultured in complete medium at 3% hematocrit supplemented with 5 nM WR99210 (Jacobus Pharmaceuticals; Plainsboro, NJ, USA). The experiments using human RBCs were performed under the guidelines of Research Ethics Committee of the Faculty of Medicine of the University of Tokyo and Institutional Review Board (IRB) of Nagasaki University (Permission nos. 10050 and no. 19, respectively). Human RBCs were obtained from The Japanese Red Cross Society. The synchronization of parasite cultures was performed by treating with 5% (w/v) sorbitol for 10 min [77].
(§1) Synchronized ring-form parasites (0.3% parasitemia) were prepared in complete medium containing different concentration of various compounds (at a fixed final DMSO concentration of 0.1% (v/v)) and distributed to 96-well plates at 100 μL/well. After 72 h of incubation, parasite growth was monitored by the previously described lactate dehydrogenase (PfLDH)-based assay method; plates were read using a SpectraMax® Paradigm spectrophotometer (Molecular Devices, Inc.; San Jose, CA, USA). EC50 values were calculated using Prism® ver.6.01 (GraphPad; San Diego, CA, USA). Values are presented as the means of three independent experiments.

The next test concerns P. falciparum 3D7-yDHODH. Kind of test: Growth inhibition of yeast DHODH-expressing strain. The conditions noted are these: Plasmodium falciparum, 3D7, read-out: Growth inhibition EC50, 3D7-yDHODH. It is filed as cell-based. The protocol:
P. falciparum 3D7-yDHODH was prepared and maintained as described previously. P. falciparum Dd2, and Dd2-derived mutant strains were kindly provided by David A. Fidock, and maintained at Nagasaki University essentially as described in reference, except without supplementation with WR99210.
as §1

Read-outs that look alike come from different tables or passages of the source.

`O=C(O)CC(=O)O` [Malonate]: the Selectivity in test [1] was 0.26. For the same molecule, the IC50 was 13.2 ± 0.49 µM in test [2] (ref Suraveratum et al. [30]) and 3.4 µM in the test on Mammal complex II (ref Mogi et al. [34]).
In the case of `CC1=C(C(=O)Nc2ccccc2)SCCO1` [Carboxin], in test [1], the Selectivity was 0.28. Besides, the “Effect on Plasmodium mitochondrial complex II” value (from here on “Effect”) in test [2] is “ineffective”. Besides, the 50% inhibitory concentration (IC50) in test [2] (ref Kawahara et al. [14]) is 3.6 ± 1 µM; in the test on Mammal complex II (ref Miyadera et al. [29]), 1 µM.
`O=C(CC(=O)C(F)(F)F)c1cccs1` [TTFA, 2-thenoyltrifluoroacetone]: the Selectivity in test [1] is reported as under 0.11. Moreover, the “Effect” value in test [2] is listed as “ineffective”. The values for the IC50 (in test [2] (ref Suraveratum et al. [30]); in the test with Mammal complex II (ref Miyadera et al. [29])) were over 50 µM and 5.4 µM, respectively.
On to `O=C1C(O)=C([C@H]2CC[C@H](c3ccc(Cl)cc3)CC2)C(=O)c2ccccc21` [Atovaquone], for which the concentration for a half-maximal effect (EC50) with P. falciparum 3D7 was 0.00056 µM; with P. falciparum 3D7-yDHODH, over 0.1 µM.
On to `COc1[nH]c(=O)c(C(=O)[C@@H](C)C[C@H](C)[C@@H](Cl)CCl)c(O)c1OC` [Atpenin A5], for which the Selectivity in test [1] came out at 0.00087. Also, the “Effect” value in test [2] was “ineffective”. Moreover, the IC50 in test [2] (ref Kawahara et al. [14]) is 4.6 ± 0.2 µM; in the test on Mammal complex II (ref Miyadera et al. [29]) it was 0.004 µM.

As a reminder, the IC50 is the point on the concentration scale where inhibition reaches its midpoint. One may read the EC50 as the concentration needed to bring the measured effect to its halfway point.
